Measured values: patent US20250388574A1, “HETEROCYCLIC COMPOUNDS AS TRIGGERING RECEPTOR EXPRESSED ON MYELOID CELLS 2 AGONISTS AND METHODS OF USE” (AMGEN INC., priority 2020, published 2025)

Target: hTREM2 (Homo sapiens, UniProt Q9NZC2)
Experiment: Phospho-Syk AlphaScreen/AlphaLISA assay in TREM2 and DAP12 overexpressing HEK293 cells (Example A1)
Assay type: cell-based
Design: expressed in transfected cells
Conditions: HEK293 cells; for EC50: read-out: hTREM2 EC50
How it was run: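 Single-cell-cloned HEK293 stably overexpressing TREM2 and DAP12, plated 20,000 cells/well for 20 h, then exposed to compounds (1% DMSO) 45 min at room temperature. Lysates probed for phospho-Syk by AlphaLISA sandwich (anti-pSyk, biotinylated anti-Syk); signal normalized to percent of control (100 nM anti-TREM2 antibody vs isotype) and fitted by 4-parameter logistic.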

Chain of hTREM2 (Q9NZC2 19-230): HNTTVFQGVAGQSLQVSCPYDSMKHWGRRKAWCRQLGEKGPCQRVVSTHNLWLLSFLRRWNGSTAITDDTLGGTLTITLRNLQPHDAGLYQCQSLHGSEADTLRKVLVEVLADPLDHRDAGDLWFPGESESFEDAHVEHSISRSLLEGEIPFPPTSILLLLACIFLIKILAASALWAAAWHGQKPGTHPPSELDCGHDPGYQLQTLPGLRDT
Chain of hTREM2 (O43914 22-113 partner): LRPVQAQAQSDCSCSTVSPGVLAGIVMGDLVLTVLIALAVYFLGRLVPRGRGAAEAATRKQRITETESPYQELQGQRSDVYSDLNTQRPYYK

Emax	EC50 [nM]	SMILES
+++ (Emax>200 and ≤300)	500 to 3000	Cc1nc2cc(N3CCOC(c4noc(-c5ccccc5)n4)C3)nc(-c3ccc(Cl)cc3F)c2c(=O)n1C (centres unmarked) [Example 93, 5-(4-chloro-2-fluorophenyl)-2,3-dimethyl-7-(2-(5-phenyl-1,2,4-oxadiazol-3-yl)-4-morpholinyl)pyrido[4,3-d]pyrimidin-4(3H)-one]
+++ (Emax>200 and ≤300)	< 50	Cc1nc2cc(N3CCOC(c4ccnc(C(F)(F)F)c4)C3)nc(-c3ccc(Cl)cc3F)c2c(=O)n1C (centres unmarked) [Example 94, 5-(4-chloro-2-fluorophenyl)-2,3-dimethyl-7-(2-(2-(trifluoromethyl)-4-pyridinyl)-4-morpholinyl)pyrido[4,3-d]pyrimidin-4(3H)-one]
+++ (Emax>200 and ≤300)	500 to 3000	Cc1nc2cc(N3CCc4cnccc4C3)nc(-c3ccc(Cl)cc3F)c2c(=O)n1C [Example 101, 5-(4-chloro-2-fluorophenyl)-7-(3,4-dihydro-2,6-naphthyridin-2(1H)-yl)-2,3-dimethylpyrido[4,3-d]pyrimidin-4(3H)-one]
+++ (Emax>200 and ≤300)	50 to 500	Cc1nc2cc(N3CCc4ccncc4C3)nc(-c3ccc(Cl)cc3F)c2c(=O)n1C [Example 102, 5-(4-chloro-2-fluorophenyl)-7-(3,4-dihydro-2,7-naphthyridin-2(1H)-yl)-2,3-dimethylpyrido[4,3-d]pyrimidin-4(3H)-one]
+ (Emax>45 and ≤100)	3000 to 100000	Cc1nc2cc(N3CCCC(C)(c4ccccc4)C3)nc(-c3ccc(Cl)cc3F)c2c(=O)n1C (centres unmarked) [Example 103, 5-(4-chloro-2-fluorophenyl)-2,3-dimethyl-7-(3-methyl-3-phenyl-1-piperidinyl)pyrido[4,3-d]pyrimidin-4(3H)-one]
++++ (Emax>300)	50 to 500	Cc1nc2cc(N3CCc4cnn(C)c4C3)nc(-c3ccc(Cl)cc3F)c2c(=O)n1C [Example 104, 5-(4-chloro-2-fluorophenyl)-2,3-dimethyl-7-(1-methyl-1,4,5,7-tetrahydro-6H-pyrazolo[3,4-c]pyridin-6-yl)pyrido[4,3-d]pyrimidin-4(3H)-one]
++++ (Emax>300)	50 to 500	Cc1nc2cc(N3CCCC(c4cnco4)C3)nc(-c3ccc(Cl)cc3F)c2c(=O)n1C (centres unmarked) [Example 105, 5-(4-chloro-2-fluorophenyl)-2,3-dimethyl-7-(3-(1,3-oxazol-5-yl)-1-piperidinyl)pyrido[4,3-d]pyrimidin-4(3H)-one]
+++ (Emax>200 and ≤300)	50 to 500	Cc1nc2cc(N3CCCC(C4CNC(=O)C4)C3)nc(-c3ccc(Cl)cc3F)c2c(=O)n1C (centres unmarked) [Example 106, 5-(4-chloro-2-fluorophenyl)-2,3-dimethyl-7-(3-(5-oxo-3-pyrrolidinyl)-1-piperidinyl)-pyrido[4,3-d]pyrimidin-4(3H)-one]
++++ (Emax>300)	500 to 3000	Cc1nc2cc(N3CCCC(N(C)C)C3)nc(-c3ccc(Cl)cc3F)c2c(=O)n1C (centres unmarked) [Example 109, 5-(4-chloro-2-fluoro-phenyl)-7-(3-(dimethylamino)-1-piperidinyl)-2,3-dimethylpyrido[4,3-d]pyrimidin-4(3H)-one]
++++ (Emax>300)	500 to 3000	Cc1nc2cc(N3CCCC(N4CCC4)C3)nc(-c3ccc(Cl)cc3F)c2c(=O)n1C (centres unmarked) [Example 110, 7-(3-(1-azetidinyl)-1-piperidinyl)-5-(4-chloro-2-fluorophenyl)-2,3-dimethylpyrido[4,3-d]pyrimidin-4(3H)-one]
+++ (Emax>200 and ≤300)	50 to 500	Cc1nc2cc(N3CCc4ccnc(Cl)c4C3)nc(-c3ccc(Cl)cc3F)c2c(=O)n1C [Example 115, 7-(8-chloro-3,4-dihydro-2,7-naphthyridin-2(1H)-yl)-5-(4-chloro-2-fluorophenyl)-2,3-dimethylpyrido[4,3-d]pyrimidin-4(3H)-one]
++ (Emax>100 and ≤200)	50 to 500	COc1ncnc2c1CN(c1cc3nc(C)n(C)c(=O)c3c(-c3ccc(Cl)cc3F)n1)CC2 [Example 116, 5′-(4-chloro-2-fluorophenyl)-4-methoxy-2′,3′-dimethyl-7,8-dihydro-5H-[6,7′-bipyrido[4,3-d]pyrimidin]-4′(3′H)-one]
+++ (Emax>200 and ≤300)	50 to 500	Cc1nc2cc(N3CCC(C(F)(F)F)C3)nc(-c3ccc(Cl)cc3F)c2c(=O)n1C (centres unmarked) [Example 119, 5-(4-chloro-2-fluorophenyl)-2,3-dimethyl-7-(3-(trifluoromethyl)-1-pyrrolidinyl)pyrido[4,3-d]pyrimidin-4(3H)-one]
+++ (Emax>200 and ≤300)	50 to 500	Cc1nc2cc(N3CCC(C(F)F)C3)nc(-c3ccc(Cl)cc3F)c2c(=O)n1C (centres unmarked) [Example 120, 5-(4-chloro-2-fluorophenyl)-7-(3-(difluoromethyl)-1-pyrrolidin-yl)-2,3-dimethylpyrido[4,3-d]pyrimidin-4(3H)-one]
++++ (Emax>300)	50 to 500	Cc1nc2cc(N3CCC(c4cccnc4)C3)nc(-c3ccc(Cl)cc3F)c2c(=O)n1C (centres unmarked) [Example 121, 5-(4-chloro-2-fluorophenyl)-2,3-dimethyl-7-(3-(3-pyridinyl)-1-pyrrolidinyl)pyrido[4,3-d]pyrimidin-4(3H)-one]
+ (Emax>45 and ≤100)	3000 to 100000	Cc1nc2cc(N3CCC(c4nccn4C)C3)nc(-c3ccc(Cl)cc3F)c2c(=O)n1C (centres unmarked) [Example 122, 5-(4-chloro-2-fluorophenyl)-2,3-dimethyl-7-(3-(1-methyl-1H-imidazol-2-yl)-1-pyrrolidinyl)pyrido[4,3-d]pyrimidin-4(3H)-one]
++++ (Emax>300)	< 50	Cc1nc2cc(N3CCO[C@@H](c4cnn(C5CCC5)c4)C3)nc(-c3ccc(Cl)cc3F)c2c(=O)n1C [Example 124, 5-(4-chloro-2-fluorophenyl)-7-((2S)-2-(1-cyclobutyl-1H-pyrazol-4-yl)-4-morpholinyl)-2,3-dimethylpyrido[4,3-d]pyrimidin-4(3H)-one]
++++ (Emax>300)	< 50	Cc1nc2cc(N3CCO[C@@H](c4cnn(C5COC5)c4)C3)nc(-c3ccc(Cl)cc3F)c2c(=O)n1C [Example 125, 5-(4-chloro-2-fluorophenyl)-2,3-dimethyl-7-((2S)-2-(1-(3-oxetanyl)-1H-pyrazol-4-yl)-4-morpholinyl)pyrido[4,3-d]pyrimidin-4(3H)-one]
+++ (Emax>200 and ≤300)	< 50	Cc1nc2cc(N3CCO[C@@H](c4cnn(CC(F)(F)F)c4)C3)nc(-c3ccc(Cl)cc3F)c2c(=O)n1C [Example 126, 5-(4-chloro-2-fluorophenyl)-2,3-dimethyl-7-((2S)-2-(1-(2,2,2-trifluoroethyl)-1H-pyrazol-4-yl)-4-morpholinyl)pyrido[4,3-d]pyrimidin-4(3H)-one]
++++ (Emax>300)	50 to 500	COCCn1cc([C@H]2CN(c3cc4nc(C)n(C)c(=O)c4c(-c4ccc(Cl)cc4F)n3)CCO2)cn1 [Example 127, 5-(4-chloro-2-fluorophenyl)-7-((2S)-2-(1-(2-methoxyethyl)-1H-pyrazol-4-yl)-4-morpholinyl)-2,3-dimethylpyrido[4,3-d]pyrimidin-4(3H)-one]
+++ (Emax>200 and ≤300)	< 50	Cc1nc2cc(N3CCO[C@@H](c4cnn(CCF)c4)C3)nc(-c3ccc(Cl)cc3F)c2c(=O)n1C [Example 128, 5-(4-chloro-2-fluorophenyl)-7-((2S)-2-(1-(2-fluoroethyl)-1H-pyrazol-4-yl)-4-morpholinyl)-2,3-dimethylpyrido[4,3-d]pyrimidin-4(3H)-one]
+++ (Emax>200 and ≤300)	< 50	Cc1nc2cc(N3CCO[C@@H](c4cnn(C(C)F)c4)C3)nc(-c3ccc(Cl)cc3F)c2c(=O)n1C (stereo partly drawn) [Example 129, 5-(4-chloro-2-fluorophenyl)-7-((2S)-2-(1-(1-fluoroethyl)-1H-pyrazol-4-yl)-4-morpholinyl)-2,3-dimethylpyrido[4,3-d]pyrimidin-4(3H)-one]
	50 to 500	Cc1nc2cc(N3CCO[C@@H](c4cnn(C(F)CO)c4)C3)nc(-c3ccc(Cl)cc3F)c2c(=O)n1C (stereo partly drawn) [Example 130, 5-(4-chloro-2-fluorophenyl)-7-((2S)-2-(1-(1-fluoro-2-hydroxyethyl)-1H-pyrazol-4-yl)-4-morpholinyl)-2,3-dimethylpyrido[4,3-d]pyrimidin-4(3H)-one]
+++ (Emax>200 and ≤300)	< 50	Cc1nc2cc(N3CCO[C@@H](c4cnn(C5CC(F)(F)C5)c4)C3)nc(-c3ccc(Cl)cc3F)c2c(=O)n1C [Example 131, 5-(4-chloro-2-fluorophenyl)-7-((2S)-2-(1-(3,3-difluorocyclobutyl)-1H-pyrazol-4-yl)-4-morpholinyl)-2,3-dimethylpyrido[4,3-d]pyrimidin-4(3H)-one]
++++ (Emax>300)	50 to 500	Cc1nc2cc(N3CCO[C@@H](c4cnn(CCN(C)C)c4)C3)nc(-c3ccc(Cl)cc3F)c2c(=O)n1C [Example 132, 5-(4-chloro-2-fluorophenyl)-7-((2S)-2-(1-(2-(dimethylamino)ethyl)-1H-pyrazol-4-yl)-4-morpholinyl)-2,3-dimethylpyrido[4,3-d]pyrimidin-4(3H)-one]
+++ (Emax>200 and ≤300)	< 50	Cc1nc2cc(N3CCO[C@@H](c4cnn(C(CF)CF)c4)C3)nc(-c3ccc(Cl)cc3F)c2c(=O)n1C [Example 133, 5-(4-chloro-2-fluorophenyl)-7-((2S)-2-(1-(1,3-difluoro-2-propanyl)-1H-pyrazol-4-yl)-4-morpholinyl)-2,3-dimethylpyrido[4,3-d]pyrimidin-4(3H)-one]

SMILES	Emax	EC50 [nM]
Cc1nc2cc(N3CCO[C@@H](c4cnn(C(C)C)c4)C3)nc(-c3ccc(Cl)cc3F)c2c(=O)n1C [Example 123, 5-(4-chloro-2-fluorophenyl)-2,3-dimethyl-7-((2S)-2-(1-(2-propanyl)-1H-pyrazol-4-yl)-4-morpholinyl)pyrido[4,3-d]pyrimidin-4(3H)-one]	++++ (Emax>300)	< 50
